Test results: PubChem BioAssay (NCI)
“And” between values parts separate entries of the source, which are not always exact repeats. Identical values can stand only once.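 Values below derive from 48-hour exposures of cells grown in 96-well plates, with endpoints linearly interpolated between the two concentrations bracketing the appropriate inhibition level. Abbreviation: GI50, concentration required for 50% inhibition of growth. TGI: concentration producing complete growth inhibition.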

Assays:
Assay in all cases: growth of human tumour cells (NCI), 48 h
SF-268 CNS = tested on: SF-268 CNS
NCI-H23 lung = tested on: NCI-H23 lung
CAKI-1 renal = tested on: CAKI-1 renal
SF-295 CNS = tested on: SF-295 CNS
SW-620 colon = tested on: SW-620 colon
HT29 colon = tested on: HT29 colon
HCC-2998 colon = tested on: HCC-2998 colon
UACC-257 melanoma = tested on: UACC-257 melanoma
SN12C renal = tested on: SN12C renal
HCT-15 colon = tested on: HCT-15 colon

SMILES	GI50 (SF-268 CNS) [µM]	TGI (SF-268 CNS) [µM]	GI50 (NCI-H23 lung) [µM]	TGI (NCI-H23 lung) [µM]	GI50 (CAKI-1 renal) [µM]	TGI (CAKI-1 renal)	GI50 (SF-295 CNS) [µM]	TGI (SF-295 CNS) [µM]	GI50 (SW-620 colon) [nM]	TGI (SW-620 colon) [µM]	GI50 (HT29 colon) [µM]	TGI (HT29 colon)	GI50 (HCC-2998 colon) [µM]	TGI (HCC-2998 colon)	GI50 (UACC-257 melanoma) [nM]	TGI (UACC-257 melanoma)	GI50 (SN12C renal) [nM]	TGI (SN12C renal)	GI50 (HCT-15 colon) [µM]	TGI (HCT-15 colon) [µM]
N#Cc1ccc(Oc2nccc(-c3c(-c4ccc(F)cc4)ncn3C3CCNCC3)n2)cc1	24.6	> 25	> 25	> 25	> 25	> 25 µM	16.6	> 25	> 15400	> 25	3.76	8.03 µM	18.6	> 25 µM	> 22700	> 25 µM	> 25000	> 25 µM	> 14.8	> 25
COc1c(OC(C)=O)cc2c(OC(C)=O)c1CC(C)CC(OC)C(O)C(C)/C=C(\C)C(OC(N)=O)C(OC)/C=C\C=C(/C)C(=O)N2 (stereo unspecified)	–	> 100	–	> 100	–	> 100 µM	–	> 100	–	> 100	–	> 100 µM	–	> 100 µM	–	> 100 µM	–	> 100 µM	–	> 100
C/C(CN1C(=O)c2ccccc2C1=O)=N\NS(=O)(=O)c1ccccc1	–	> 100	–	> 100	–	> 100 µM	–	> 100	–	> 100	–	> 100 µM	–	> 100 µM	–	> 100 µM	–	> 100 µM	–	> 100
CCC(=O)C1=C(OC(C)=O)C2Cc3c(n(C)c4ccccc34)C(C1)N2C (stereo unspecified)	–	47.9	–	> 100	–	> 100 µM	–	> 100	–	90.1	–	> 100 µM	–	> 100 µM	–	> 100 µM	–	61.5 µM	–	38
CC1=C(N2CC2)C(=O)C(CO)=C(N2CC2)C1=O	0.00666	–	0.00143	–	0.00256	0.412 µM and 0.243 µM	0.0329	1.06	3.68	–	–	0.148 µM and 0.435 µM	0.111	0.511 µM and 0.29 µM	76.1	0.527 µM and 2.41 µM	5.7	0.0367 µM and 0.139 µM	0.02	0.584
COC1=C(OC)C(=O)C(/C=C(\C)C(=O)O)=C(C)C1=O	> 100	> 100	> 100	> 100	> 100	> 100 µM	> 100	> 100	> 100000	> 100	> 100	> 100 µM	> 100	> 100 µM	> 100000	> 100 µM	> 100000	> 100 µM	> 100	> 100
COc1cc(/C=C/C(=O)C(=Cc2ccc(F)c(F)c2)C(=O)/C=C/c2ccc(O)c(OC)c2)ccc1O	2.74	12.5	2.8	8.56	3.51	20.2 µM	3.63	25.1	1840	3.62	1.72	3.63 µM	1.98	3.79 µM	1780	4.37 µM	2650	7.86 µM	2.82	10.1
Nc1nnc2nc(CC(=O)/C=C/c3ccccc3)c(=O)[nH]n12	–	> 100	–	> 100	–	> 100 µM	–	> 100	–	> 100	–	> 100 µM	–	> 100 µM	–	> 100 µM	–	> 100 µM	–	> 100
Cc1c2ccccc2c(C)c2c3c(ccc12)C(=O)C=CC3=O	–	43.1	–	> 85.4	–	46.3 µM	–	> 31.6	–	47	–	> 65.8 µM	–	> 100 µM	–	41.5 µM	–	> 69.1 µM	–	42.4
CC1C2Cc3ccc(O)cc3C1(C)CCN2C (stereo unspecified)	–	> 100	–	> 100	–	> 100 µM	–	> 100	–	> 100	–	> 100 µM	–	> 100 µM	–	> 100 µM	–	> 100 µM	–	> 100
CCOc1ccccc1NC(=O)C(=O)CC(=O)C1=C(C)Nc2ccccc2S1	–	> 100	–	> 100	–	> 100 µM	–	> 100	–	> 100	–	> 100 µM	–	> 100 µM	–	> 100 µM	–	> 100 µM	–	> 100
CCCOc1ccc(/C(Cl)=C(\C=O)c2ccc(OC)c(OC)c2)cc1OCCC	–	> 100	–	21.6	–	> 100 µM	–	88.3	–	> 100	–	18.5 µM	–	15.4 µM	–	> 100 µM	–	> 100 µM	–	32.8
O=C(N[C@H](c1ccc(Cl)c(Cl)c1)C1CNC1)c1ccc2cnccc2c1	2.56	15.6	5.83	19.6	1.84	10.7 µM	3.04	14.5	2570	15.2	3.24	14.4 µM	2.06	6.06 µM	5180	18.6 µM	2760	15.7 µM	5.02	18.3
OC1CN(OC/C=C/c2ccccc2)CC(O)C1O (stereo unspecified)	–	> 100	–	> 100	–	> 100 µM	–	> 100	–	> 100	–	> 100 µM	–	> 100 µM	–	> 100 µM	–	> 100 µM	–	> 100
COc1ccc2c(c1)C(=O)c1c-2n(CCCN=[N+]=[N-])c(=O)c2ccccc12	39.8	> 100	50.4	> 100	49.7	> 100 µM	18.5	> 100	25500	> 100	41.4	> 100 µM	61.9	> 100 µM	> 100000	> 100 µM	> 100000	> 100 µM	58.4	> 100
COc1ccc2c(=O)c([Se]c3coc4cc(OC)ccc4c3=O)coc2c1	–	> 100	–	> 100	–	> 100 µM	–	> 100	–	> 100	–	> 100 µM	–	> 100 µM	–	> 100 µM	–	> 100 µM	–	> 100
CCN1CCN(CCOc2ccc(CNc3ccc4nc(CCC5CCCCC5)[nH]c4c3)cc2)CC1	2	5.16	2.38	6.94	2.01	4.11 µM	1.99	3.95	1910	4.14	0.563	2.38 µM	2.22	5.07 µM	1850	4.12 µM	2720	11 µM	1.43	3.41
Clc1ccc(-c2nc3c(-c4ccc(Cl)cc4)nc(-c4ccccc4)cn3c2-c2ccc(Cl)cc2)cc1	> 50	> 50	> 50	> 50	27.8	> 50 µM	12	> 50	> 50000	> 50	> 50	> 50 µM	> 50	> 50 µM	> 50000	> 50 µM	> 50000	> 50 µM	> 50	> 50
CC(=O)NNc1nc(C)c(C(=O)NNC(=O)C(=O)Nc2ccc(C)c(C)c2)s1	–	> 100	–	> 100	–	> 100 µM	–	> 100	–	> 100	–	> 100 µM	–	> 100 µM	–	> 100 µM	–	> 100 µM	–	> 100
C=C1CC[C@@H]2C(C)(C)[C@@H](O)CC[C@@]2(C)[C@@H]1COc1ccc2ccc(=O)oc2c1	12.2	33.1	13.8	33.8	13.4	55.6 µM	10.5	22.9	18800	44	8.61	32.6 µM	15.2	31.1 µM	14100	32.1 µM	14100	30.8 µM	11.5	26.8
Cc1cccc(CN(C)c2ccc(CO)c(Cl)c2)c1	33.7	> 100	14.6	> 73.1	3.71	44.3 µM	4.87	46.8	7180	> 100	11.9	> 55.3 µM	15.9	52.9 µM	565	2.22 µM	15000	48.9 µM	19.8	> 100
CCCCCCN(CCCCCC)CCCNc1nccc2ccccc12	2.53	8.51	1.8	3.83	1.92	5.33 µM	0.951	2.24	1290	2.96	0.513	1.95 µM	1.98	3.75 µM	1840	3.54 µM	2270	7.36 µM	1.41	3.21
C/C(=N/O)C1CC=C(S(=O)(=O)c2ccccc2)C1 (stereo unspecified)	–	> 100	–	> 100	–	> 100 µM	–	> 100	–	> 100	–	> 100 µM	–	> 100 µM	–	> 100 µM	–	> 100 µM	–	> 100
